# What was measured:
# [1] = target: T1, H1299 cell pMer (Homo sapiens, UniProt Q12866); assay: Inhibitory activity on the cell pMer (Western Blot); format: cell-based; conditions: H1299 cells, compound 0.35, 1.1, 3.3, 10 nM, Human MerMab 200 ng/mL
# T1 construct: The H1299 cells were inoculated in a 6-well plate; endogenous in cells; host or cells: H1299
# T1 sequence (Q12866 21-999): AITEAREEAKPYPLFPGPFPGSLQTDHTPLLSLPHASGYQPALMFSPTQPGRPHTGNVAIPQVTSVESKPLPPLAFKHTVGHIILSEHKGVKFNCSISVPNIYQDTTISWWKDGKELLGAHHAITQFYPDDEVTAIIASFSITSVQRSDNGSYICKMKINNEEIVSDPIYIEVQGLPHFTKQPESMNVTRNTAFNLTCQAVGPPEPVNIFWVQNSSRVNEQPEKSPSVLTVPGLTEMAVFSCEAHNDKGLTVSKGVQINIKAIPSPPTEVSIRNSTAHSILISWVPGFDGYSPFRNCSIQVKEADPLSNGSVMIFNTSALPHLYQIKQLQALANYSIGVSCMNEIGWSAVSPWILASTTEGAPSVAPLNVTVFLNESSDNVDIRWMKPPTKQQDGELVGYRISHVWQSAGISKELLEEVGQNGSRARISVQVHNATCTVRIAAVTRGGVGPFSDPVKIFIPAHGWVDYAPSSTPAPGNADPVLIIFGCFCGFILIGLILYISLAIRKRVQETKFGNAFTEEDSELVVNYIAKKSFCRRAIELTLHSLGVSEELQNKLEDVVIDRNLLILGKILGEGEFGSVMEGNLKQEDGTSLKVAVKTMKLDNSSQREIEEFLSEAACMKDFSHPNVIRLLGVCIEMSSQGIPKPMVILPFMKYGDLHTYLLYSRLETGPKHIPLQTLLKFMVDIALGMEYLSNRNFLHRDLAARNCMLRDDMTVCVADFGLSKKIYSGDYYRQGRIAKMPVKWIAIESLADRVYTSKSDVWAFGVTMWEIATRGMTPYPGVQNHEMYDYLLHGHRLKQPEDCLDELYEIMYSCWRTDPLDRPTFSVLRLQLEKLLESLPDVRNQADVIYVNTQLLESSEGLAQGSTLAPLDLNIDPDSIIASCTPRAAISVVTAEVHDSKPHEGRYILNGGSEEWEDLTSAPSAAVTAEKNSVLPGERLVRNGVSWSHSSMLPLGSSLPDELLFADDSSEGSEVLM
# Experimental: Assay 6: Test for Inhibitory Activities of the Compounds of the Present Invention on the Cell pMer
# H1299 is a non-small cell lung cancer cell.
# Test substances: the compounds of the present invention, wherein the structures thereof were as described above.
# Test equipment: protein electrophoresis apparatus (manufactured by Bio Rad), transfer unit (manufactured by Bio Rad), exposure unit (manufactured by Tanon), CO2 cell incubator (manufactured by Thermo).
# The H1299 cells were inoculated in a 6-well plate (containing 10% FBS 1640 medium, 5×10^5 cells per well), and adherent cells were cultivated at 37° C. in a 5% CO2 condition for 18 hours. The cells were starved overnight. Different concentrations of compounds were added. The final compound concentrations were 0.35, 1.1, 3.3 and 10 nM, and the final DMSO content was 1‰. The negative control wells contained the medium containing 1‰ DMSO. After incubating at 37° C. in a 5% CO2 condition for 60 minutes, Human MerMab (R&D, final concentration 200 ng/mL) was added to each well. After further incubating for 60 minutes, the cell total protein was extracted for Western Blot and the IC50 values were calculated using GraphPad 5.0 software. The inhibitory activity of the compound on the cell pMer was examined.
# [2] = Stability in liver microsome of mice; format: in vitro ADME; conditions: liver microsomes; Mouse liver microsome 0.5 mg protein/mL, compound 1 μM, 37° C.
# Experimental: Assay 1: Stability assessment of the compounds of the present invention in liver microsome of mice and dogs
# Test substances: the compounds of the present invention, wherein the structures and preparations thereof were as described above.
# The composition of the incubation system:
# Preparation of Test Substances:
# An appropriate amount of the compound was accurately weighed and dissolved in DMSO to prepare a 5.0 mM stock solution. The 5.0 mM stock solution was diluted to 1.0 mM with DMSO, and finally diluted with water to a 10 μM test substance working solution for use (the DMSO content in the reaction system was 0.1%).
# (1) The liver microsome (20 mg protein/mL) was taken out from the −80° C. refrigerator, pre-incubated at 37° C. with a water-bathing constant temperature vibrator for 3 minutes, and melted for use.
# (2) A mixed solution of the incubation system (excluding compounds and β-NADPH) according to the above “composition of the incubation system” for the assay was prepared, and pre-incubated at 37° C. with a water-bathing constant temperature vibrator for 2 minutes.
# (3) Control group (excluding β-NADPH): 30 μL of water and 30 μL of compound working solution (10 μM) were added to 240 μL of the mixed solution of the incubation system of step (2), and vortexed for 30 seconds to mix well. The total reaction volume was 300 μL. A duplicate sample was prepared. The sample was incubated at 37° C. with a water-bathing constant temperature vibrator. The timekeeping began and the sampling time points were set at 0 minute and 60 minutes.
# (4) Sample group: 70 μL of β-NADPH solution (10 mM) and 70 μL of compound working solution (10 μM) were added to 560 μL of the mixed solution of step (2). The total reaction volume was 700 μL. The resulting mixture was vortexed for 30 seconds to mix well. A duplicate sample was prepared. The sample was incubated at 37° C. with a water-bathing constant temperature vibrator. The timekeeping began and the sampling time points were set at 0 minute, 5 minutes, 10 minutes, 20 minutes, 30 minutes, and 60 minutes after timekeeping.
# (5) After vortexing for 3 minutes, the sample was centrifuged at 4000 rpm for 10 minutes.
# (6) 50 μL of the supernatant was taken and 150 μL of water was added. The resulting mixture was vortexed to mix well, and analyzed by LC/MS/MS.
# The half-life (t1/2) and clearance rate (Cl) were calculated using the following first-order kinetic formula:
# Vd=1/protein content in liver microsome
# Note: k was the slope of the logarithm of the remaining amount of the compound versus time, and Vd was the apparent distribution volume.
IC50 [1],half-life at 1 μM [2],microsomal CLint at 1 μM [2],SMILES
< 1.1 nM,3.3 h,7 µL/min/mg,"COc1cc2nccc(Oc3cnc(NC(=O)c4cn(C5CC5)nc(-c5ccc(F)cc5)c4=O)nc3)c2cc1OC [Compound 45, 2-cyclopropyl-N-(5-((6,7-dimethoxyquinolin-4-yl)oxy)pyrimidine-2-yl)-6-(4-fluorophenyl)-5-oxo-2,5-dihydropyridazine-4-carboxamide]"
< 1.1 nM,10.5 h,2.2 µL/min/mg,"COc1cc2nccc(Oc3ccc(NC(=O)c4cn(C5CC5)nc(-c5ccc(F)cc5)c4=O)cn3)c2cc1OC [Compound 43, 2-cyclopropyl-N-(6-((6,7-dimethoxyquinolin-4-yl)oxy)pyridin-3-yl)-6-para-fluorophenyl-5-oxo-2,5-dihydropyridazine-4-carboxamide]"
< 1.1 nM,4.62 h,5 µL/min/mg,"COc1cc2nccc(Oc3ncc(NC(=O)c4nn(C(C)C)cc(-c5ccc(F)cc5)c4=O)cn3)c2cc1OC [Compound 34, N-(2-((6,7-dimethoxyquinolin-4-yl)oxy)pyrimidine-5-yl)-5-para-fluorophenyl-1-isopropyl-4-oxo-1,4-dihydropyridazine-3-carboxamide]"
1.1 nM,5.5 h,4.2 µL/min/mg,"COc1cc2nccc(Oc3cnc(NC(=O)c4cn(C(C)C)cc(-c5ccc(F)cc5)c4=O)nc3)c2cc1OC [Compound 20, N-(5-((6,7-dimethoxyquinolin-4-y)oxy)pyrimidine-2-yl)-5-(4-fluorophenyl)-1-isopropyl-4-oxo-1,4-dihydropyridin-3-carboxamide]"

# From patent US20220073496A1, “NOVEL QUINOLINE DERIVATIVE INHIBITOR” (Nanjing Transthera Biosciences Co., Ltd., priority 2018, published 2022)
